Source: PMC13316043, “Structural basis of NSD2 degradation via targeted recruitment of SCF-FBXO22” (Nature Communications, 2026)

Tested on: FBXO22-NSD2 PWWP1 ternary complex
Assay: Size-exclusion chromatography to monitor ternary complex formation
Type: binding, human
Procedure: Formation of the SCF^FBXO22-UNC10088-NSD2 PWWP1 and SCF^FBXO22-UNC10415667-NSD2 PWWP1 ternary complexes was performed by incubating SKP1-FBXO22, CUL1-RBX1, NSD2 PWWP1, and UNC10088 or UNC10415667 at a 1:1:1:1 molar ratio for 4 h on ice. The SCF^FBXO22-UNC10088-NSD2 PWWP1-BACH1 BTB ternary complex was formed by incubating SKP1-FBXO22, CUL1-RBX1, NSD2 PWWP1, UNC10088, and BACH1 BTB at a 1:1:1:1:1.5 molar ratio for 1 h on ice. The incubated sample was loaded onto a Superdex 200 Increase SD200 column (Cytiva), equilibrated with 20 mM HEPES pH 8, 200 mM NaCl, 1 mM DTT, for size-exclusion chromatography, and fractions containing all subunits of the SCF^FBXO22-Degrader-NSD2 PWWP1 complex were pooled and concentrated. The SCF^FBXO22-UNC10088-NSD2 PWWP1, SCF^FBXO22-UNC10415667-NSD2 PWWP1, and SCF^FBXO22-UNC10088-NSD2 PWWP1-BACH1 BTB complexes were concentrated to 33 µM, 10.9 µM, and 4.1 µM, respectively, and flash frozen. […] In contrast, only the PWWP1 and BTB domains of NSD2 and BACH1, respectively, were used.
FBXO22 WT and variants were incubated on ice with NSD2 PWWP1 and either UNC10088 or UNC10415667 at 5 µM. After 1 h, the samples were centrifuged at 16,060 x g for 10 min at 4 °C. Each sample was examined for C326- and compound-dependent complex formation by comparing the SEC chromatograms and Coomassie-stained SDS-PAGE gels. […] These experiments were performed using a Superdex 200 Increase SD200 column (Cytiva) and 20 mM HEPES pH 8, 200 mM NaCl, 1 mM DTT.

Row | SMILES | ternary complex formation between FBXO22 and NSD2 PWWP1 by SEC
1 | O=C1COc2cc(C(=O)N(Cc3ccc(C(=O)Nc4ccc5c(c4)CCN(C(=O)CCCCC(O)S(=O)(=O)O)C5)cc3)C3CC3)ccc2N1 (centres unmarked) [UNC10088] | co-migrated together
2 | O=Cc1ccc(C(=O)N2CCc3cc(NC(=O)c4ccc(CN(C(=O)c5ccc6c(c5)OCC(=O)N6)C5CC5)cc4)ccc3C2)cc1 [UNC10415667] | stable complex
